Legend:
Type in all cases: in vivo
[1] = test system: ABUTH: Abutilon theophrasti; assay: Pre-emergence herbicide efficacy at 80 g/ha, ABUTH; settings: scored visually after about 3 weeks
Procedure, shortened: (§1)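 Seeds sown in pots and covered with soil received WP or EC formulations sprayed onto the soil surface at 80 g/ha, 600 l/ha water, with 0.5% additive. After about 3 weeks in greenhouse, efficacy was visually scored as percent versus untreated controls (100% = plants dead, 0% = like control).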

[2] = test system: DIGSA: Digitaria sanguinalis; assay: Pre-emergence herbicide efficacy at 1280 g/ha, DIGSA; settings: visual scoring after about 3 weeks vs untreated controls
Procedure, shortened: (§2)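 Pre-emergence pot test in sandy loam: WP or EC formulations sprayed onto covering soil after sowing, as aqueous suspension/emulsion with 0.5% additive at 600 L/ha water. Plants grown in greenhouse; after about 3 weeks, efficacy scored visually as % versus untreated controls (100% = dead, 0% = like control).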

VERPE: Veronica persica [3] = assay: Post-emergence herbicidal efficacy at 1280 g/ha, VERPE; settings: visual rating about 3 weeks after treatment vs untreated controls
Procedure, shortened: (§3)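 Greenhouse pot test in sandy loam. Plants at the one-leaf stage, 2–3 weeks after sowing, were sprayed post-emergence with WP or EC formulations in water containing 0.5% additive, at 600 L/ha. Activity was scored visually about 3 weeks later against untreated controls (100% = dead, 0% = as control).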

[4] = test system: AMARE: Amaranthus retroflexus; assay: Post-emergence herbicidal efficacy at 1280 g/ha, AMARE; settings: rated visually after about 3 weeks vs untreated controls, 100% = plants have died, 0% = like control plants
Procedure, shortened: as §3

POAAN: Poa annua [5] = assay: Pre-emergence herbicide efficacy at 1280 g/ha, POAAN; settings: visual scoring after about 3 weeks vs untreated controls
Procedure, shortened: as §2

[6] = test system: AMARE: Amaranthus retroflexus; assay: Pre-emergence herbicide efficacy at 1280 g/ha, AMARE; settings: visual scoring after about 3 weeks vs untreated controls
Procedure, shortened: as §2

VERPE: Veronica persica [7] = assay: Post-emergence herbicidal efficacy at 80 g/ha, VERPE; settings: visual rating about 3 weeks after treatment vs untreated controls
Procedure, shortened: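 Greenhouse plants grown in sandy loam were sprayed at the one-leaf stage, 2 to 3 weeks after sowing, with WP or EC formulations in water containing 0.5% additive at 600 l/ha. Visual rating against untreated controls came about 3 weeks later (100% = dead, 0% = as control).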

KCHSC: Kochia scoparia [8] = assay: Pre-emergence herbicide efficacy at 1280 g/ha, KCHSC; settings: visual scoring after about 3 weeks vs untreated controls
Procedure, shortened: as §2

KCHSC: Kochia scoparia [9] = assay: Post-emergence herbicidal efficacy at 80 g/ha, KCHSC; settings: visual rating about 3 weeks after treatment vs untreated controls
Description: Seeds of monocotyledonous and dicotyledonous weeds and crop plants were placed in sandy loam in plastic or organic planting pots, covered with soil and cultivated in a greenhouse under controlled growth conditions. 2 to 3 weeks after sowing, the test plants were treated at the one-leaf stage. The compounds of the invention, formulated in the form of wettable powders (WP) or as emulsion concentrates (EC), were then sprayed onto the green parts of the plants as aqueous suspension or emulsion with addition of 0.5% additive at a water application rate of 600 l/ha (converted). After the test plants had been kept in the greenhouse under optimum growth conditions for about 3 weeks, the activity of the preparations was rated visually in comparison to untreated controls. For example, 100% activity=the plants have died, 0% activity=like control plants. Tables B1 to B10 below show the effects of selected compounds of the general formula (I) according to Table 1 on various harmful plants and an application rate corresponding to 80 g/ha, which were obtained by the experimental procedure mentioned above.

[10] = test system: ALOMY: Alopecurus myosuroides; assay: Pre-emergence herbicide efficacy at 1280 g/ha, ALOMY; settings: visual scoring after about 3 weeks vs untreated controls
Procedure, shortened: as §2

[11] = test system: AMARE: Amaranthus retroflexus; assay: Pre-emergence herbicide efficacy at 80 g/ha, AMARE; settings: scored visually after about 3 weeks
Procedure, shortened: as §1

POAAN: Poa annua [12] = assay: Post-emergence herbicidal efficacy at 1280 g/ha, POAAN; settings: visual rating about 3 weeks after treatment vs untreated controls
Procedure, shortened: as §3

[13] = test system: ECHCG: Echinochloa crus-galli; assay: Post-emergence herbicidal efficacy at 1280 g/ha, ECHCG; settings: rated visually after about 3 weeks vs untreated controls, 100% = plants have died, 0% = like control plants
Procedure, shortened: as §3

[14] = test system: DIGSA: Digitaria sanguinalis; assay: Post-emergence herbicidal efficacy at 1280 g/ha, DIGSA; settings: rated visually after about 3 weeks vs untreated controls, 100% = plants have died, 0% = like control plants
Procedure, shortened: as §3

[15] = test system: DIGSA: Digitaria sanguinalis; assay: Pre-emergence herbicide efficacy at 80 g/ha, DIGSA; settings: scored visually after about 3 weeks
Procedure, shortened: as §1

[16] = test system: ECHCG: Echinochloa crus-galli; assay: Pre-emergence herbicide efficacy at 80 g/ha, ECHCG; settings: scored visually after about 3 weeks
From the text: (§4) Seeds of monocotyledonous and dicotyledonous weed plants and crop plants were placed in plastic or organic planting pots and covered with soil. The compounds of the invention, formulated in the form of wettable powders (WP) or as emulsion concentrates (EC), were then applied to the surface of the covering soil as aqueous suspension or emulsion with addition of 0.5% additive at a water application rate equivalent to 600 l/ha. After the treatment, the pots were placed in a greenhouse and kept under good growth conditions for the test plants. After about 3 weeks, the efficacy of the preparations was scored visually in comparison with untreated controls as percentages. For example, 100% activity=the plants have died, 0% activity=like control plants. Tables D1 to D12 below show the effects of selected compounds of the general formula (I) according to Table 1 on various harmful plants and an application rate corresponding to 80 g/ha, which were obtained by the experimental procedure mentioned above.

KCHSC: Kochia scoparia [17] = assay: Post-emergence herbicidal efficacy at 1280 g/ha, KCHSC; settings: visual rating about 3 weeks after treatment vs untreated controls
Procedure, shortened: as §3

SETVI: Setaria viridis = assay: Pre-emergence herbicide efficacy at 1280 g/ha, SETVI; settings: visual scoring vs untreated controls
Procedure, shortened: as §2

[18] = test system: ABUTH: Abutilon theophrasti; assay: Post-emergence herbicidal efficacy at 1280 g/ha, ABUTH; settings: rated visually after about 3 weeks vs untreated controls, 100% = plants have died, 0% = like control plants
Procedure, shortened: as §3

VERPE: Veronica persica [19] = assay: Pre-emergence herbicide efficacy at 1280 g/ha, VERPE; settings: visual scoring vs untreated controls
Procedure, shortened: as §2

VIOTR: Viola tricolor = assay: Pre-emergence herbicide efficacy at 80 g/ha, VIOTR; settings: scored visually after about 3 weeks
From the text: as §4

STEME: Stellaria media [20] = assay: Pre-emergence herbicide efficacy at 1280 g/ha, STEME; settings: visual scoring vs untreated controls
Procedure, shortened: as §2

[21] = test system: MATIN: Matricaria inodora; assay: Pre-emergence herbicide efficacy at 80 g/ha, MATIN; settings: scored visually after about 3 weeks
Procedure, shortened: as §1

STEME: Stellaria media [22] = assay: Post-emergence herbicidal efficacy at 1280 g/ha, STEME; settings: visual rating about 3 weeks after treatment vs untreated controls
Procedure, shortened: as §3

Compound	Pre-emergence efficacy against ABUTH in % [1]	Pre-emergence efficacy against DIGSA [2]	Post-emergence efficacy against VERPE (VERPE: Veronica persica [3])	Post-emergence efficacy at 1280 g/ha against AMARE in % [4]	Pre-emergence efficacy against POAAN (POAAN: Poa annua [5])	Pre-emergence efficacy against AMARE [6]	Post-emergence efficacy against VERPE (VERPE: Veronica persica [7])	Pre-emergence efficacy against KCHSC (KCHSC: Kochia scoparia [8])	Post-emergence efficacy against KCHSC (KCHSC: Kochia scoparia [9])	Pre-emergence efficacy against ALOMY [10]	Pre-emergence efficacy against AMARE in % [11]	Post-emergence efficacy against POAAN (POAAN: Poa annua [12])	Post-emergence efficacy at 1280 g/ha against ECHCG in % [13]	Post-emergence efficacy at 1280 g/ha against DIGSA in % [14]	Pre-emergence efficacy against DIGSA in % [15]	Pre-emergence efficacy against ECHCG in % [16]	Post-emergence efficacy against KCHSC (KCHSC: Kochia scoparia [17])	Pre-emergence efficacy against SETVI in % (SETVI: Setaria viridis)	Post-emergence efficacy at 1280 g/ha against ABUTH in % [18]	Pre-emergence efficacy against VERPE in % (VERPE: Veronica persica [19])	other results
FC(F)c1cc(-c2ccccc2Cc2ncc(Cl)cn2)on1 [Example 1-133]	100%	100%	100%	100%	100%	100%	100%	100%	100%	100%	100%	100%	100%	100%	100%	80%	100%	100%	100%	100%	Pre-emergence efficacy against VIOTR in % (VIOTR: Viola tricolor): 80%; Pre-emergence efficacy against STEME in % (STEME: Stellaria media [20]): 100%; Pre-emergence efficacy against MATIN in % [21]: 80%; Post-emergence efficacy against STEME (STEME: Stellaria media [22]): 100%
Clc1cnc(Cc2c(Cl)cccc2Oc2ncc(Cl)cn2)nc1 [Example 1-56]	100%	100%	90%	90%	100%	100%	100%	100%	80%	100%	100%	90%	90%	90%	100%	80%	90%	100%	90%	100%	Pre-emergence efficacy against VIOTR in % (VIOTR: Viola tricolor): 100%; Pre-emergence efficacy against STEME in % (STEME: Stellaria media [20]): 100%; Pre-emergence efficacy against MATIN in % [21]: 100%; Post-emergence efficacy against STEME (STEME: Stellaria media [22]): 90%

— patent US20250221410A1, “SUBSTITUTED 2-C-AZINES AND SALTS THEREOF, AND USE THEREOF AS HERBICIDAL ACTIVE SUBSTANCES” (BAYER AKTIENGESELLSCHAFT, priority 2022, published 2025)
